Laboratory results as given in the NIST ThermoML archive (doi:10.1021/je101184s).
± gives the expanded uncertainty stated by the source.

test: relative permittivity at zero frequency (dimensionless); details: 298.15 K; 101.33 kPa; Liquid; Coaxial cylinder capacitor

Row | SMILES | relative permittivity at zero frequency
1 | CCCC[n+]1c(C)c(C)n(C)c1C.F[B-](F)(F)F | 12 ± 1.2
2 | CCCCn1c(C)c(C)[n+](C)c1C.O=S(=O)([N-]S(=O)(=O)C(F)(F)F)C(F)(F)F | 15 ± 1.6
3 | CCCCn1cc[n+](C)c1C.O=S(=O)([N-]S(=O)(=O)C(F)(F)F)C(F)(F)F | 14 ± 1.6
4 | CCn1cc[n+](C)c1C.O=S(=O)([N-]S(=O)(=O)C(F)(F)F)C(F)(F)F | 12.8 ± 0.8
5 | COP(=O)([O-])OC.Cn1cc[n+](C)c1 [1,3-dimethylimidazolium dimethylphosphate] | 29.6 ± 3
6 | C[n+]1ccn(CCO)c1.F[B-](F)(F)F [1-(2-hydroxyethyl)-3-methylimidazolium tetrafluoroborate] | 23.3 ± 2
7 | CCCC[N+]1(C)CCCC1.N#CN=C=[N-] [1-butyl-1-methylpyrrolidinium dicyanamide] | 18 ± 1.6
8 | CCCCn1cc[n+](C)c1C.F[P-](F)(F)(F)(F)F [1-butyl-2,3-dimethylimidazolium hexafluorophosphate] | 9.4 ± 2
9 | CCCCn1cc[n+](C)c1C.F[B-](F)(F)F [1-butyl-2,3-dimethylimidazolium tetrafluoroborate] | 13.3 ± 1.2
10 | CCCCn1cc[n+](C)c1.F[P-](F)(F)(F)(F)F [1-butyl-3-methylimidazolium hexafluorophosphate] | 14 ± 1.4
11 | CCCCn1cc[n+](C)c1.F[B-](F)(F)F [1-butyl-3-methylimidazolium tetrafluoroborate] | 13.9 ± 0.8
12 | CCCCn1cc[n+](C)c1.N#C[S-] [1-butyl-3-methylimidazolium thiocyanate] | 13.7 ± 1.6
13 | CCCCn1cc[n+](C)c1.O=S(=O)([O-])C(F)(F)F [1-butyl-3-methylimidazolium trifluoromethanesulfonate] | 12.9 ± 1
14 | CCCCS(=O)(=O)[O-].CCn1cc[n+](C)c1 [1-ethyl-3-methylimidazolium butylsulfonate] | 30 ± 3
15 | CCOP(=O)([O-])OCC.CCn1cc[n+](C)c1 [1-ethyl-3-methylimidazolium diethyl phosphate] | 16.9 ± 1.6
16 | CCOS(=O)(=O)[O-].CCn1cc[n+](C)c1 [1-ethyl-3-methylimidazolium ethyl sulfate] | 35 ± 3
17 | CCn1cc[n+](C)c1.O=S(=O)([O-])O [1-ethyl-3-methylimidazolium hydrogen sulfate] | 18.4 ± 2
18 | CCn1cc[n+](C)c1.O=S(=O)([O-])C(F)(F)F [1-ethyl-3-methylimidazolium trifluoromethanesulfonate] | 16.5 ± 1
19 | Br.Cn1ccnc1 [1-methylimidazolium bromide] | 16.6 ± 2.4
20 | Cl.Cn1ccnc1 [1-methylimidazolium chloride] | 13.8 ± 2
21 | CC(=O)[O-].[NH3+]CCO [2-hydroxyethylammonium acetate] | 58.3 ± 5
22 | CC(O)C(=O)[O-].[NH3+]CCO (stereo unspecified) [2-hydroxyethylammonium lactate] | 85.6 ± 8
23 | O=[N+]([O-])[O-].[NH3+]CCO [ethanolammonium nitrate] | 60.9 ± 4
24 | CC(O)C(=O)O.OCCN(CCO)CCO [triethanolamine lactate] | 59.7 ± 6
25 | CC(=O)O.OCCN(CCO)CCO [triethanolammonium acetate] | 31 ± 3
26 | CCCCC[N+](CC)(CC)CC.O=S(=O)([N-]S(=O)(=O)C(F)(F)F)C(F)(F)F [triethylpentylammonium bis(trifluoromethylsulfonyl)imide] | 12.5 ± 1.4
